Test results from ChEMBL document CHEMBL3885881, “DrugMatrix”.

Species on record: Rattus norvegicus
Test: DrugMatrix - Regimen: Daily Repeat
Format: toxicity, organism-based, Sprague-Dawley
Design: regimen Daily Repeat, gender Male, age 6-8 weeks
Conditions: in vivo, po, route oral GAVAGE, […]; for ABSOLUTE BASOPHIL / ABSOLUTE EOSINOPHIL / ABSOLUTE LYMPHOCYTE / ABSOLUTE MONOCYTE / ABSOLUTE SEGMENTED NEUTROPHIL / BASOPHIL / EOSINOPHIL / ERYTHROCYTE COUNT / HEMATOCRIT / HEMOGLOBIN / LEUKOCYTE COUNT / LYMPHOCYTE / MEAN CORPUSCULAR HEMOGLOBIN / MEAN CORPUSCULAR HEMOGLOBIN CONCENTRATION / MEAN CORPUSCULAR VOLUME / MONOCYTE / NEUTROPHIL / NUCLEATED RED BLOOD CELLS / PLATELET COUNT: tissue Blood; for ALANINE AMINOTRANSFERASE / ALBUMIN / ALKALINE PHOSPHATASE / ASPARTATE AMINOTRANSFERASE / BLOOD UREA NITROGEN / CARBON DIOXIDE / CHLORIDE / CHOLESTEROL / CREATINE PHOSPHOKINASE / CREATININE / GLUCOSE / LACTATE DEHYDROGENASE / LIPASE / PHOSPHORUS / POTASSIUM / SODIUM / TOTAL BILIRUBIN / TOTAL PROTEIN / URIC ACID: tissue Plasma
[1] = 30 mg/kg, 120 h, dose level Low, time 5 day
[2] = 1093 mg/kg, 72 h, dose level High, time 3 day
[3] = 1093 mg/kg, 120 h, dose level High, time 5 day

Question: What does the source list for `CCC(C)n1ncn(-c2ccc(N3CCN(c4ccc(OCC5COC(Cn6cncn6)(c6ccc(Cl)cc6Cl)O5)cc4)CC3)cc2)c1=O` (centres undefined) [ITRACONAZOLE]?
Answer: ABSOLUTE BASOPHIL [1]: 0 CELLS/uL; ABSOLUTE EOSINOPHIL [1]: 154 CELLS/uL; ABSOLUTE LYMPHOCYTE [1]: 10619.33 CELLS/uL; ABSOLUTE MONOCYTE [1]: 425.67 CELLS/uL; ABSOLUTE SEGMENTED NEUTROPHIL [1]: 634.33 CELLS/uL; BASOPHIL [1]: 0%; EOSINOPHIL [1]: 1.33%; ERYTHROCYTE COUNT [1]: 5.97 x10E6/uL; HEMATOCRIT [1]: 38.27%; HEMOGLOBIN [1]: 14.43 G/DL; LEUKOCYTE COUNT [1]: 11.83 x10E3/uL; LYMPHOCYTE [1]: 89.67%; MEAN CORPUSCULAR HEMOGLOBIN [1]: 24.2 pg; MEAN CORPUSCULAR HEMOGLOBIN CONCENTRATION [1]: 37.77 G/DL; MEAN CORPUSCULAR VOLUME [1]: 64.1 fL; MONOCYTE [1]: 3.67%; NEUTROPHIL [1]: 5.33%; NUCLEATED RED BLOOD CELLS [1]: 0 /100WBC; PLATELET COUNT [1]: 1278.33 x10E3/uL; ALANINE AMINOTRANSFERASE [1]: 59.67 u/L; ALBUMIN [1]: 4.03 G/DL; ALKALINE PHOSPHATASE [1]: 472.33 u/L; ASPARTATE AMINOTRANSFERASE [1]: 77 u/L; BLOOD UREA NITROGEN [1]: 9 mg/dL; CARBON DIOXIDE [1]: 23.67 mmol/L; CHLORIDE [1]: 102.67 MEQ/L; CHOLESTEROL [1]: 50.33 mg/dL; CREATINE PHOSPHOKINASE [1]: 199.67 u/L; CREATININE [1]: 0.12 mg/dL; GLUCOSE [1]: 162.67 mg/dL; LACTATE DEHYDROGENASE [1]: 92.67 u/L; LIPASE [1]: 6.33 u/L; PHOSPHORUS [1]: 11.77 mg/dL; POTASSIUM [1]: 6.35 MEQ/L; SODIUM [1]: 142.93 MEQ/L; TOTAL BILIRUBIN [1]: 0.13 mg/dL; TOTAL PROTEIN [1]: 5.97 G/DL; URIC ACID [1]: 1.6 mg/dL; ABSOLUTE BASOPHIL [2]: 0 CELLS/uL; ABSOLUTE EOSINOPHIL [2]: 143 CELLS/uL; ABSOLUTE LYMPHOCYTE [2]: 12564.33 CELLS/uL; ABSOLUTE MONOCYTE [2]: 467.67 CELLS/uL; ABSOLUTE SEGMENTED NEUTROPHIL [2]: 825 CELLS/uL; BASOPHIL [2]: 0%; EOSINOPHIL [2]: 1%; ERYTHROCYTE COUNT [2]: 6.06 x10E6/uL; HEMATOCRIT [2]: 38.43%; HEMOGLOBIN [2]: 14.67 G/DL; LEUKOCYTE COUNT [2]: 14 x10E3/uL; LYMPHOCYTE [2]: 89.67%; MEAN CORPUSCULAR HEMOGLOBIN [2]: 24.23 pg; MEAN CORPUSCULAR HEMOGLOBIN CONCENTRATION [2]: 38.17 G/DL; MEAN CORPUSCULAR VOLUME [2]: 63.43 fL; MONOCYTE [2]: 3.33%; NEUTROPHIL [2]: 6%; NUCLEATED RED BLOOD CELLS [2]: 0 /100WBC; PLATELET COUNT [2]: 1165.33 x10E3/uL; ALANINE AMINOTRANSFERASE [2]: 57 u/L; ALBUMIN [2]: 4 G/DL; ALKALINE PHOSPHATASE [2]: 535.67 u/L; ASPARTATE AMINOTRANSFERASE [2]: 71 u/L; BLOOD UREA NITROGEN [2]: 10.67 mg/dL; CARBON DIOXIDE [2]: 22.67 mmol/L; CHLORIDE [2]: 102.33 MEQ/L; CHOLESTEROL [2]: 50.33 mg/dL; CREATINE PHOSPHOKINASE [2]: 230.33 u/L; CREATININE [2]: 0.12 mg/dL; GLUCOSE [2]: 165 mg/dL; LACTATE DEHYDROGENASE [2]: 54.33 u/L; LIPASE [2]: 9.33 u/L; PHOSPHORUS [2]: 10.63 mg/dL; POTASSIUM [2]: 6.01 MEQ/L; SODIUM [2]: 142.3 MEQ/L; TOTAL BILIRUBIN [2]: 0.17 mg/dL; TOTAL PROTEIN [2]: 5.87 G/DL; URIC ACID [2]: 1.77 mg/dL; ABSOLUTE BASOPHIL [3]: 0 CELLS/uL; ABSOLUTE EOSINOPHIL [3]: 139 CELLS/uL; ABSOLUTE LYMPHOCYTE [3]: 10102.67 CELLS/uL; ABSOLUTE MONOCYTE [3]: 609.67 CELLS/uL; ABSOLUTE SEGMENTED NEUTROPHIL [3]: 1115.33 CELLS/uL; BASOPHIL [3]: 0%; EOSINOPHIL [3]: 1%; ERYTHROCYTE COUNT [3]: 5.79 x10E6/uL; HEMATOCRIT [3]: 36.73%; HEMOGLOBIN [3]: 14.13 G/DL; LEUKOCYTE COUNT [3]: 11.97 x10E3/uL; LYMPHOCYTE [3]: 84.67%; MEAN CORPUSCULAR HEMOGLOBIN [3]: 24.4 pg; MEAN CORPUSCULAR HEMOGLOBIN CONCENTRATION [3]: 38.47 G/DL; MEAN CORPUSCULAR VOLUME [3]: 63.43 fL; MONOCYTE [3]: 5%; NEUTROPHIL [3]: 9.33%; NUCLEATED RED BLOOD CELLS [3]: 0 /100WBC; PLATELET COUNT [3]: 1189.33 x10E3/uL; ALANINE AMINOTRANSFERASE [3]: 78.67 u/L; ALBUMIN [3]: 4.17 G/DL; ALKALINE PHOSPHATASE [3]: 402 u/L; ASPARTATE AMINOTRANSFERASE [3]: 84.33 u/L; BLOOD UREA NITROGEN [3]: 10.67 mg/dL; CARBON DIOXIDE [3]: 22.33 mmol/L; CHLORIDE [3]: 103.67 MEQ/L; CHOLESTEROL [3]: 67 mg/dL; CREATINE PHOSPHOKINASE [3]: 522 u/L; CREATININE [3]: 0.21 mg/dL; GLUCOSE [3]: 181 mg/dL; LACTATE DEHYDROGENASE [3]: 126 u/L; LIPASE [3]: 17.33 u/L; PHOSPHORUS [3]: 11.7 mg/dL; POTASSIUM [3]: 5.88 MEQ/L; SODIUM [3]: 143.47 MEQ/L; TOTAL BILIRUBIN [3]: 0.13 mg/dL; TOTAL PROTEIN [3]: 5.83 G/DL; URIC ACID [3]: 2 mg/dL
